The record followed here is ChEMBL document CHEMBL5465560, “Selectivity Literature for EUbOPEN Chemogenomic Library” (2024).

In experiment [1] the target is Bone morphogenetic protein receptor type-1B (Homo sapiens, UniProt O00238). The experiment is described as follows: Selectivity interaction (KinomeScan (DiscoverX)) EUB0000655a BMPR1B. The note with it: at 10 µM.
For experiment [2], the target named is T1, Serine/threonine-protein kinase BRSK1 (Homo sapiens) (UniProt Q8TDC3).
T1 sequence (whole entry): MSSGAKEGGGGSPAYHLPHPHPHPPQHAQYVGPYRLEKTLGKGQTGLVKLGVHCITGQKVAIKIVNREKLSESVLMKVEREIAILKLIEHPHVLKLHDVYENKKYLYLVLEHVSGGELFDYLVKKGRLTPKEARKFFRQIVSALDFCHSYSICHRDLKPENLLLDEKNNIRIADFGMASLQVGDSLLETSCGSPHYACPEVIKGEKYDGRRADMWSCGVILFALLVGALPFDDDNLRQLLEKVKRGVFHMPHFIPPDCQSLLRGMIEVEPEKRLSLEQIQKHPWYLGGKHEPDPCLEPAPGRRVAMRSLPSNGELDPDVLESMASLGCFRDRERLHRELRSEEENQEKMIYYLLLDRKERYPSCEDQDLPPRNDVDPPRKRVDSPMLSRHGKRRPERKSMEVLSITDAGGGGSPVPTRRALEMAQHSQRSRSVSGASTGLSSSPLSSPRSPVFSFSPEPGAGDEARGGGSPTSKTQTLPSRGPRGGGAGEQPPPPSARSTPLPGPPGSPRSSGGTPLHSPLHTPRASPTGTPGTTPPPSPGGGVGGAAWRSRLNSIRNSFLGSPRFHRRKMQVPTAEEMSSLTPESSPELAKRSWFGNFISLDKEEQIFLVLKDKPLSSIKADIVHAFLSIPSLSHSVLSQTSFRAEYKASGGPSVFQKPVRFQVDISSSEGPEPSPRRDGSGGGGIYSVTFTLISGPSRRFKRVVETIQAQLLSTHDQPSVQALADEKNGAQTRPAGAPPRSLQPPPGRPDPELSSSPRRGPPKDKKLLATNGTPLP
The experiment is described as follows: Selectivity interaction (KinomeScan (DiscoverX)) EUB0000655a BRSK1. The note with it: at 10 µM.

In experiment [3] the target is T2, Dual specificity mitogen-activated protein kinase kinase 5 (Homo sapiens) (UniProt Q13163).
T2 sequence (whole entry): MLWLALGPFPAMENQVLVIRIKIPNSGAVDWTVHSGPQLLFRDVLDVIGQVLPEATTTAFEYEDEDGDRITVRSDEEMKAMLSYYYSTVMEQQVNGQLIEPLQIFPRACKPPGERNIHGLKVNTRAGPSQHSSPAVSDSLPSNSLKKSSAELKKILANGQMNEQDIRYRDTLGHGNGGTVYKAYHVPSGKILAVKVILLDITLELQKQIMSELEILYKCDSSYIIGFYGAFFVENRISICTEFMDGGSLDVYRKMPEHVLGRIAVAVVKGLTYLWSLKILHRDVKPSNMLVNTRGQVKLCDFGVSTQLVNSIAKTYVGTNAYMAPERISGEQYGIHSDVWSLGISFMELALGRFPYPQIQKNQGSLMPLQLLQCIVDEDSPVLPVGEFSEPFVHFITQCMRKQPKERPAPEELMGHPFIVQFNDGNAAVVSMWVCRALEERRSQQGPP
The experiment is described as follows: Selectivity interaction (KinomeScan (DiscoverX)) EUB0000045b MAP2K5.

Experiment [4] deals with T3, Mitogen-activated protein kinase 13 (Homo sapiens) (UniProt O15264).
T3 sequence (whole entry): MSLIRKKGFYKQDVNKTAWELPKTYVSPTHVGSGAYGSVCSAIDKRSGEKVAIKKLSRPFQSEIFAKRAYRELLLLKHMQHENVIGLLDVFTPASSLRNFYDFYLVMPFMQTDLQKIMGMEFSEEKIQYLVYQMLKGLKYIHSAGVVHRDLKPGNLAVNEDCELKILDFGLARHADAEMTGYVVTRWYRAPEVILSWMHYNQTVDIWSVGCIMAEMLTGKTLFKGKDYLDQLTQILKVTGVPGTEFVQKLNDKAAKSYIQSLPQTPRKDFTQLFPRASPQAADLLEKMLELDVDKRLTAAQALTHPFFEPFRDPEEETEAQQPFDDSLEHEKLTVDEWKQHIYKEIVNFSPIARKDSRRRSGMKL
The experiment is described as follows: Selectivity interaction (KinomeScan (DiscoverX)) EUB0000045b MAPK13.

In experiment [5] the target is Ribosomal protein S6 kinase alpha-1 (Homo sapiens, UniProt Q15418). The experiment is described as follows: Selectivity interaction (ActivX KiNativ screen (kinase selectivity in THP-1 cell lysates)) EUB0000639a RPS6KA1. In kind it is subcellular. The following applies: lysate, at 0.2 µM.
Experiment [6] concerns the target Phosphatidylinositol 4-phosphate 3-kinase C2 domain-containing subunit beta (Homo sapiens) (UniProt O00750). The experiment is described as follows: Selectivity interaction (Kinase panel (Invitrogen)) EUB0000639a PIK3C2B. The note with it: at 200 nM.
Experiment [7] addresses T4, Phosphatidylinositol 4,5-bisphosphate 3-kinase catalytic subunit delta isoform (Homo sapiens) (UniProt O00329).
T4 sequence (whole entry): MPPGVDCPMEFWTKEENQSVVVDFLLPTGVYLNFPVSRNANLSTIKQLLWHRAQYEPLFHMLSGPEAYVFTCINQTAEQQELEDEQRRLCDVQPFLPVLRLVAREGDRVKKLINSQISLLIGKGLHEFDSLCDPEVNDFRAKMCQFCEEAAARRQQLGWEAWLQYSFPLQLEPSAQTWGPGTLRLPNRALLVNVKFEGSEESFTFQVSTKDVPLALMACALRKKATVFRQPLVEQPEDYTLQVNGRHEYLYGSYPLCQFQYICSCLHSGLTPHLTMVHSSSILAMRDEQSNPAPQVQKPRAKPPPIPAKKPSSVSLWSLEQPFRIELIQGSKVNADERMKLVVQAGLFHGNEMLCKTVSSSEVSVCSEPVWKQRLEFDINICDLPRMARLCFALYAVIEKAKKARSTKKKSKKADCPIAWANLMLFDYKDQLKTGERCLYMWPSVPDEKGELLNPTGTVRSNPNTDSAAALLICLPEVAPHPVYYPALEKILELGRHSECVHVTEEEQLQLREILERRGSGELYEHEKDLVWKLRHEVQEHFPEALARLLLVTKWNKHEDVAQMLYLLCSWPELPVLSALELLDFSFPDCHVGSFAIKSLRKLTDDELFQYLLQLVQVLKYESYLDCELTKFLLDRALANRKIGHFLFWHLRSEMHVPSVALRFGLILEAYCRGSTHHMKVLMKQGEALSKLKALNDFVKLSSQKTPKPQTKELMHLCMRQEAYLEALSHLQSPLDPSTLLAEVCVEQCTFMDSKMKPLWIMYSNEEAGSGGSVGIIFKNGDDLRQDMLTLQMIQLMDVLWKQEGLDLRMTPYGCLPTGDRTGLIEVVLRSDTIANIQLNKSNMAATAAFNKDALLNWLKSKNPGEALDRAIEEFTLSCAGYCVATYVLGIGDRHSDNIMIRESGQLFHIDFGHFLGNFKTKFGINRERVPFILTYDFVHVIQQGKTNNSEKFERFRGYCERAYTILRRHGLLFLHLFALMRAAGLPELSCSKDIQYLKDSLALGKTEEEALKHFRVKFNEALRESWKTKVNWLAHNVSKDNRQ
The experiment is described as follows: Selectivity interaction (KinomeScan (DiscoverX)) EUB0000229b PIK3CD. The following applies: at 10 µM.

Chain of Ribosomal protein S6 kinase alpha-1 (Q15418 whole entry, the tested form may be a part): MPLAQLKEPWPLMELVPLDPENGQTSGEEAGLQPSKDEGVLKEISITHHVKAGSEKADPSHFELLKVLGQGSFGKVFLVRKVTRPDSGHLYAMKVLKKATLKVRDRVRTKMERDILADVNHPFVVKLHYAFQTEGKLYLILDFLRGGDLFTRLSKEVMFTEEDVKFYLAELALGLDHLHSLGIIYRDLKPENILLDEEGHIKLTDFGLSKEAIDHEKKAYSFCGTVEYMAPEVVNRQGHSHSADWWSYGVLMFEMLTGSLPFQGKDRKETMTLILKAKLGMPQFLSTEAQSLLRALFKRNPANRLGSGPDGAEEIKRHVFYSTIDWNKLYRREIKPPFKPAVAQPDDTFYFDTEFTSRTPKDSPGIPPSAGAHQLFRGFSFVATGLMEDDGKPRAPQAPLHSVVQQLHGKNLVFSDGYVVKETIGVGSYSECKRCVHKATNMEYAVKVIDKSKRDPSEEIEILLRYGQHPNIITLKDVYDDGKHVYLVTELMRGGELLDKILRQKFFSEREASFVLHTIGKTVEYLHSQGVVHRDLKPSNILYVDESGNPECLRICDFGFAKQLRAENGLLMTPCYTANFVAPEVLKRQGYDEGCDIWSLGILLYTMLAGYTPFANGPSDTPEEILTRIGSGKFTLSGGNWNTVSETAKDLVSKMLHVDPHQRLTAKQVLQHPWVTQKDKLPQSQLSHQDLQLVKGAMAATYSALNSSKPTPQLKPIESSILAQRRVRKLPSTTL
Chain of Phosphatidylinositol 4-phosphate 3-kinase C2 domain-containing subunit beta (Homo sapiens) (O00750 whole entry, the tested form may be a part, canonical isoform): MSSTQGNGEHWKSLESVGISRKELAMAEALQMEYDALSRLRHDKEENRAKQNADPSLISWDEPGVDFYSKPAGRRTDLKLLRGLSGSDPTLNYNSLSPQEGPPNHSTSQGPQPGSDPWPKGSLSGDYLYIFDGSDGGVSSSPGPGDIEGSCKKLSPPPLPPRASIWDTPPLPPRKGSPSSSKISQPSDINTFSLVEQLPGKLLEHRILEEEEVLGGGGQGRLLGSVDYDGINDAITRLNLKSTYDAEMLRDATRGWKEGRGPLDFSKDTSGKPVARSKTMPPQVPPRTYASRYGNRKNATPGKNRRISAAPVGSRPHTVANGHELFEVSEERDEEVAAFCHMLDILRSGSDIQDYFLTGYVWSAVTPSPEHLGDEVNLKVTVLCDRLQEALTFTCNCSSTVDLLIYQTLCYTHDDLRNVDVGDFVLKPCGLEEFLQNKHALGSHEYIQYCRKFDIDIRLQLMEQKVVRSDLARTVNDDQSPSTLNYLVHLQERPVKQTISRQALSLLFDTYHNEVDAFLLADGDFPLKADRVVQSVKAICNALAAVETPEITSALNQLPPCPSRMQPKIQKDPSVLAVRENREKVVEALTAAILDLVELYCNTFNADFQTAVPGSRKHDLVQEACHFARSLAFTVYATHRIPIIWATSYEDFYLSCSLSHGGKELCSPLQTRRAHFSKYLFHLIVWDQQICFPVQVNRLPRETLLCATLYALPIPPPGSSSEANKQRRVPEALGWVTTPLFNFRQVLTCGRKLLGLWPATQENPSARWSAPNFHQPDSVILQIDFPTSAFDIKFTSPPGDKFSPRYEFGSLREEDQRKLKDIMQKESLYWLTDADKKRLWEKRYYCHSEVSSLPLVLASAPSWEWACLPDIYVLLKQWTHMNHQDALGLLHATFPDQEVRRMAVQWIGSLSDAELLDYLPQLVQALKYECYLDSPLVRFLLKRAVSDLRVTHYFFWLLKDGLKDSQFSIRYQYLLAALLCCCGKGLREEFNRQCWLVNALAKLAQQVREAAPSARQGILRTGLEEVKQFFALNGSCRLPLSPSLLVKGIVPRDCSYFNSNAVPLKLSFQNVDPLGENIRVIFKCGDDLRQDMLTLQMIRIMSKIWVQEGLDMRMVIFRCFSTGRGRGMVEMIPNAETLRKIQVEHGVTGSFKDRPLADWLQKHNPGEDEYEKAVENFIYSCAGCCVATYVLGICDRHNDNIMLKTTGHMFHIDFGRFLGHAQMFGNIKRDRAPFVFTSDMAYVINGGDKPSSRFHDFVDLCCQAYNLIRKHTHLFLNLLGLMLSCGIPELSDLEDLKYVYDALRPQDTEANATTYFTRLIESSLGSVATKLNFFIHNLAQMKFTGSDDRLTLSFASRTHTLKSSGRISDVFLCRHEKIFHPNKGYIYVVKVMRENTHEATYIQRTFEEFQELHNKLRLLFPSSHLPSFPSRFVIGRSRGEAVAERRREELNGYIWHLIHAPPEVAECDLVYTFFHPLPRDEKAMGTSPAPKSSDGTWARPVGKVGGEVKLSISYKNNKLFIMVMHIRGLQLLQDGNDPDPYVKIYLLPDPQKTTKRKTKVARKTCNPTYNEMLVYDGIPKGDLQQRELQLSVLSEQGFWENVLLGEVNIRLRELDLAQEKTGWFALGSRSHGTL
Chain of Bone morphogenetic protein receptor type-1B (O00238 whole entry): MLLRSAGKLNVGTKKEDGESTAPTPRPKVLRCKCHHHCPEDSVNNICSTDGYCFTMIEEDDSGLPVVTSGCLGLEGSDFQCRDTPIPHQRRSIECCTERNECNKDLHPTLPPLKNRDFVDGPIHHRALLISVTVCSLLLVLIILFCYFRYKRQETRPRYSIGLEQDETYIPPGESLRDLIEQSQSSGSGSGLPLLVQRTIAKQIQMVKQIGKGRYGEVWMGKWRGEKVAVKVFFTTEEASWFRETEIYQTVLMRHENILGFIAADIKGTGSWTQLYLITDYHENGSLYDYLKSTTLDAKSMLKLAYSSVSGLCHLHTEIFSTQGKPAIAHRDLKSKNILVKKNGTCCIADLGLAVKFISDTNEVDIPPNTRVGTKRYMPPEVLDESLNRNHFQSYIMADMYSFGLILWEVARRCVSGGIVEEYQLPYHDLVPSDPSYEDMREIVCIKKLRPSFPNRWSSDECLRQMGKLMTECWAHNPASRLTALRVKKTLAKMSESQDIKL

Take `CN(C)CCOc1ccc(-c2nc(-c3ccncc3)c(-c3ccc4c(c3)CC/C4=N\O)[nH]2)cc1`: the % of control in experiment [1] was 26%; in experiment [2], 76%.
In the case of `C=CC(=O)Nc1cc(-n2c(=O)ccc3cnc4ccc(-c5ccc(NS(C)(=O)=O)cc5)cc4c32)ccc1C`, the % of control in experiment [3] (at 1 µM) amounted to 100%; in experiment [3] (at 10 µM), 64%; in experiment [4] (at 1 µM), 100%; in experiment [4] (at 10 µM) it was 100%.
On to `CC[C@@H]1[C@H](F)C(=O)N[C@@H]1COc1nccc2cc(C(N)=O)c(OC)cc12` [ZIMLOVISERTIB], for which the values for the % of inhibition in experiment [5] and in experiment [6] were -3.6% and 7.24%, respectively.
With `COc1cc(N(C)c2ccnc3ccc(C(F)(F)F)cc23)cc(OC)c1OC`, the % binding in experiment [7] was determined as 86%.
